{"source": "patent US12616666B2", "about": "“Coenzyme Q10 formulations in the treatment and prevention of epidermolysis bullosa” (BPGbio, Inc., priority 2017, dated 2026)", "key": {"SCC cell line (SCC-25)": {"test_system": "SCC cell line (SCC-25)", "assay": "Proteomic analysis of SCC cell line", "assay_type": "cell-based", "conditions": "100 uM CoQ10, SCC-25", "method": "Next, a proteomic analysis of an in-vitro model of squamous cell carcinoma, SCC cell line (SCC-25), was undertaken to delineate the underlying mechanistic regulating effect of the CoQ10 compositions of the invention. Table 1, shown above and reproduced below, lists the proteins identified to have a differential response to 100 uM CoQ10 treatment in SCC cells at 6 and 24 hours."}, "[1]": {"test_system": "Human aortic smooth muscle cells (HASMC)", "assay": "Western Blot of ACL expression in normal control cells", "assay_type": "cell-based", "conditions": "50 μM or 100 μM", "method": "(§1) FIG. 3A and FIG. 3B show the effect of Coenzyme Q10 treatment (50 μM or 100 μM) on expression of ATP Citrate lyase (ACL) in SK-MEL-28 melanoma cells. Human aortic smooth muscle cells (HASMC) were used as a control."}, "[2]": {"assay": "Heat stability of CoQ10 solubilized in Polysorbate 80", "assay_type": "physicochemical", "conditions": "25-60% CoQ10 solubilized in Polysorbate 80, heated for several hours at 55° C.", "method": "Coenzyme Q10 […] is a deep yellow-orange powder and is very hydrophobic with a melting point of approximately 48 degrees centigrade. The active ingredient, CoQ10 […] Cream, ubidecarenone, USP may be adversely affected by heat and light, according to the literature. […] Heating the mixture to 50-55° C. (i.e., 2-7° C. above the melting point of CoQ10) greatly speeds the solubilization of CoQ10. To manufacture the topical CoQ10 cream, two CoQ10 concentrate phases (CoQ10/Polysorbate 80 and water-lecithin-glycol-phenoxyethanol) were each heated separately to 50-55° C. with the water phase added to the solubilized CoQ10 and were mixed with high shear homogenization to form a microemulsion concentrate of CoQ10. The CoQ10 concentrate was then added to a water-in-oil (W/O) cream emulsion base to produce the final CoQ10 cream. The final concentration of CoQ10 in the cream was 3.0%. The CoQ10 3% cream is further described in International Publication No. WO2008/116135, the entire content of which is incorporated by reference in its entirety herein."}, "SK-MEL-28 melanoma cells": {"test_system": "SK-MEL-28 melanoma cells", "assay": "Western Blot of protein expression", "assay_type": "cell-based", "method": "FIG. 2A and FIG. 2B show the expression of isocitrate dehydrogenase (IDH-1) in SK-MEL-28 melanoma cells treated with increasing concentration of Coenzyme Q10 (50 μM or 100 μM).\nas §1\nFIG. 4A and FIG. 4B show the effect of Coenzyme Q10 on expression of p53, pl4ARF and MDM2 in SK-MEL-28 melanoma cells.\nBcl-2, Bax and Caspase 3 are pro- and anti-apoptotic markers regulating cell death pathways. A beta-actin loading control was used."}, "adult fibroblasts": {"test_system": "adult fibroblasts", "assay": "Cell proliferation with increasing Coenzyme Q10 concentration", "assay_type": "cell-based, human", "conditions": "normal fibroblasts, increasing concentration (FIG. 1)", "text": "(§2) When applied topically to melanoma tumors in nude mice, a 1.0% CoQ10 formulation inhibited growth and angiogenesis. The mechanism involves the shifting of the cellular bioenergetics from cytoplasmic glycolysis towards mitochondrial oxidative phosphorylation (AACR 2011). The shift in cellular metabolic pathways in cancer including SCC and melanoma results in the recapitulation of the p53 regulated apoptotic potential by re-establishing the balance of pro-apoptic Bcl-2/Bax ratios in a manner conducive for cell death."}, "[3]": {"test_system": "melanoma (SK-MEL-28) cell line", "assay": "Cell proliferation with increasing Coenzyme Q10 concentration", "assay_type": "cell-based", "conditions": "SK-MEL-28, increasing concentration (FIG. 1)", "text": "as §2"}, "[4]": {"test_system": "normal human keratinocytes", "assay": "Cell proliferation with increasing Coenzyme Q10 concentration", "assay_type": "cell-based", "conditions": "increasing concentration (FIG. 1)", "text": "as §2"}, "[5]": {"test_system": "squamous cell carcinoma (SCC-25) cell line", "assay": "Cell proliferation with increasing Coenzyme Q10 concentration", "assay_type": "cell-based", "conditions": "SCC-25, increasing concentration (FIG. 1)", "text": "as §2"}, "SCC cells": {"test_system": "SCC cells", "assay": "Apoptosis Array gene regulation", "assay_type": "cell-based", "conditions": "100 uM Q10, SCC cells", "method": "Table 3, shown above and reproduced below, lists the genes in SCC cells that are regulated by 100 uM Q10 treatment when analyzed by the Apoptosis Array."}, "IL6": {"test_system": "IL6", "assay": "Upregulation of inflammatory cytokines after topical CoQ10", "conditions": "topical application"}, "[6]": {"conditions": "direction: Decrease, at 6 and 24 hr"}, "[7]": {"conditions": "direction: Decrease, at 24 hr only"}, "[8]": {"conditions": "direction: Increase, at 6 and 24 hr"}, "[9]": {"conditions": "SK-MEL-28, 50 μM or 100 μM for 12 or 24 hours"}}, "data": [{"smiles": "COC1=C(OC)C(=O)C(C/C=C(\\C)CC/C=C(\\C)CC/C=C(\\C)CC/C=C(\\C)CC/C=C(\\C)CC/C=C(\\C)CC/C=C(\\C)CC/C=C(\\C)CC/C=C(\\C)CCC=C(C)C)=C(C)C1=O", "note": "[CoQ10, Coenzyme Q10]", "values": [{"measurement": "NM23 protein (NME1) Response", "setting": "SCC cell line (SCC-25); at 24 hr", "value": "decrease at 24 hr"}, {"measurement": "Keratin 1 (KRT1) Response (fold change)", "setting": "SCC cell line (SCC-25); [6]", "value": "Decrease (2.3) at 6 and 24 hr fold change"}, {"measurement": "Transaldolase 1 (TALDO1) Response (fold change)", "setting": "SCC cell line (SCC-25); [6]", "value": "Decrease (1.5) at 6 and 24 hr fold change"}, {"measurement": "Rho GDP dissociation inhibitor (GDI) alpha (ARHGDIA) Response (fold change)", "setting": "SCC cell line (SCC-25); direction: Decrease, at 6 hr only", "value": "Decrease (1.5) at 6 hr only fold change"}, {"measurement": "Proteasome activator subunit 3 (PSME3) Response (fold change)", "setting": "SCC cell line (SCC-25); [7]", "value": "Decrease (1.3) at 24 hr only fold change"}, {"measurement": "Protessome Beta 7 (PSMB7) Response (fold change)", "setting": "SCC cell line (SCC-25); [7]", "value": "Decrease (1.6) at 24 hr only fold change"}, {"measurement": "Heat shock 27 kDa protein 1 (HSPB1) Response (fold change)", "setting": "SCC cell line (SCC-25); [8]", "value": "Increase (−1.9) at 6 and 24 hr fold change"}, {"measurement": "Keratin 13 (KRT13) Response (fold change)", "setting": "SCC cell line (SCC-25); [8]", "value": "Increase (−1.5) at 6 and 24 hr fold change"}, {"measurement": "Keratin 14 (KRT14) Response (fold change)", "setting": "SCC cell line (SCC-25); [8]", "value": "Increase (−1.6) at 6 and 24 hr fold change"}, {"measurement": "NM23 protein (NME1) Response (fold change)", "setting": "SCC cell line (SCC-25); printed direction: increase, at 6 hr", "value": "increase (−1.2) at 6 hr, fold change"}, {"measurement": "expression of ATP Citrate lyase (ACL)", "setting": "[1]", "value": "not observed"}, {"measurement": "breakdown of CoQ10 on heating", "setting": "[2]", "value": "no measurable breakdown"}, {"measurement": "expression of MDM2", "setting": "SK-MEL-28 melanoma cells; SK-MEL-28 (FIG. 4)", "value": "decrease"}, {"measurement": "expression of ATP Citrate lyase (ACL)", "setting": "SK-MEL-28 melanoma cells; SK-MEL-28, 50 μM or 100 μM", "value": "concentration dependent decrease"}, {"measurement": "expression of isocitrate dehydrogenase (IDH-1)", "setting": "SK-MEL-28 melanoma cells; SK-MEL-28, 50 μM or 100 μM", "value": "concentration dependent increase"}, {"measurement": "expression of anti-apoptotic bcl-2 protein", "setting": "SK-MEL-28 melanoma cells; [9]", "value": "concentration dependent decrease"}, {"measurement": "expression of caspase 3", "setting": "SK-MEL-28 melanoma cells; [9]", "value": "progressive dose-dependent increase"}, {"measurement": "expression of pro-apoptotic bax", "setting": "SK-MEL-28 melanoma cells; [9]", "value": "concentration dependent increase"}, {"measurement": "cell proliferation rate", "setting": "adult fibroblasts", "value": "no effect"}, {"measurement": "cell proliferation rate", "setting": "[3]", "value": "dose dependent decrease"}, {"measurement": "cell proliferation rate", "setting": "[3]; listed as Coenzyme Q10", "value": "concentration dependent decrease"}, {"measurement": "cell proliferation rate", "setting": "[4]", "value": "no effect"}, {"measurement": "cell proliferation rate", "setting": "[5]", "value": "dose dependent decrease"}, {"measurement": "cell proliferation rate", "setting": "[5]; listed as Coenzyme Q10", "value": "concentration dependent decrease"}, {"measurement": "BCL2L1 gene Regulation", "setting": "SCC cells; 6 hours", "value": "Down regulated at 6 hours and"}, {"measurement": "CARD6 gene Regulation", "setting": "SCC cells; 6 hours", "value": "Down regulated at 6 hours."}, {"measurement": "AKT1 gene Regulation", "setting": "SCC cells; 24 hours", "value": "then up regulated at 24 hours."}, {"measurement": "BAG4 gene Regulation", "setting": "SCC cells; 24 hours", "value": "Up regulated at 24 hours."}, {"measurement": "BAX gene Regulation", "setting": "SCC cells; 24 hours", "value": "Up regulated at 24 hours."}, {"measurement": "BCL2L1 gene Regulation", "setting": "SCC cells; 24 hours", "value": "then up regulated at 24 hours."}, {"measurement": "BNIP3 gene Regulation", "setting": "SCC cells; 24 hours", "value": "Down regulated at 24 hours."}, {"measurement": "CASP6 gene Regulation", "setting": "SCC cells; 24 hours", "value": "Up regulated at 24 hours."}, {"measurement": "CASP7 gene Regulation", "setting": "SCC cells; 24 hours", "value": "Up regulated at 24 hours."}, {"measurement": "GADD45A gene Regulation", "setting": "SCC cells; 24 hours", "value": "Up regulated at 24 hours."}, {"measurement": "TP53 gene Regulation", "setting": "SCC cells; 24 hours", "value": "Up regulated at 24 hours."}, {"measurement": "TP73 gene Regulation", "setting": "SCC cells; 24 hours", "value": "then up regulated at 24 hours."}, {"measurement": "upregulation of inflammatory cytokines (IL6)", "setting": "IL6", "value": "block the upregulation"}]}]}
